According to patent US20230357099A1, “PYRAZOLO [3,4-B] PYRIDINE-4-CARBOXAMIDE NITRIFICATION INHIBITOR” (EUROCHEM ANTWERPTEN, priority 2020, published 2023):
Like-named read-outs stand apart in the source and are kept apart here.

Legend:
[1] = tested on: ABIL (ammonia-binding liquid inoculum), nitrifying microbial enrichment containing both AOA and AOB; test: Nitrification inhibition assay on ABIL (ammonium consumption); type: cell-based; details: for activity at 10 µM / ABIL - relative nitrification (%) at 10 µM: 10 µM compound
[2] = tested on: Nitrososphaera viennensis; test: Nitrification inhibition assay on Nitrososphaera viennensis (nitrite, Griess); type: cell-based, Nitrososphaera viennensis EN76T; details: for N. viennensis - relative nitrification (%) at 0.5 µM: 0.5 µM compound; for N. viennensis - relative nitrification (%) at 0.5 µM / N. viennensis - relative nitrification (%) at 5 µM / N. viennensis - relative nitrification (%) at 25 µM: 0% = as strong as 100 µM PTIO, 100% = no inhibition; for N. viennensis - relative nitrification (%) at 5 µM: 5 µM compound; for N. viennensis - relative nitrification (%) at 25 µM: 25 µM compound; for activity at 2.5 µM: Nitrososphaera viennensis, 2.5 µM compound, structural variants outside formula (I), read-out: Relative nitrification (%) by Nitrososphaera viennensis treated with 2.5 µM compound
Description: Nitrite (NO2—) was measured using the Griess reagent (Product number: G4410, Griess reagent (modified), Sigma-Aldrich). Equal volumes of the sample or a diluted sample and the Griess reagent were mixed a transparent flat bottom multi-well plate and incubated in the dark at room temperature for 10 minutes. Absorbance values at 540 nm were measured spectrophotometrically (EnVision, Perkin Elmer®) and used to calculate the [NO2—] by use of a standard curve.
A liquid culture sample of Nitrososphaera viennensis EN76T was kindly supplied by prof. dr. Christa Schleper (University of Vienna). Cells were grown in fresh water medium (FWM) as described earlier by Tourna et al. (2011). All necessary materials were rinsed with 1 % HCl and washed at least 3 times with MilliQ water. FWM (pH 7.5 (KOH)) contained 17 mM NaCl, 3 mM MgCl2 × 2 H2O, 680 µM CaCl2 × 2 H2O, 1.47 mM KH2PO4 and 6.71 mM KCI. After autoclaving, successively 1 mL non-chelated trace element mixture (101 mM HCl, 488 µM H3BO3, 508 µM MnCl2 × 4 H2O, 803 µM CoCl2 × 6 H2O, 101 µM NiCl2 × 6 H2O, 12 µM CuCl2 × 2 H2O, 503 µM ZnSO4 × 7 H2O and 150 µM Na2MoO4 × 2 H2O), 1 mL Fe-NaEDTA (7.5 mM), 1 mL vitamin solution (20 mg/L biotin, 20 mg/L folic acid, 100 mg/L pyridoxine-HCl, 50 mg/L thiamine-HCl, 50 mg/L riboflavin, 50 mg/L nicotinic acid, 50 mg/L DL-pantothenic acid, 50 mg/L P-aminobenzoic acid, 2 g/L choline chloride and 10 mg/L vitamin B12), 2 mL NaHCO3 (1 M), 2 mL kanamycin (100 mg/mL), 2 mL carbenicillin (100 mg/mL), 3 mL NH4Cl (1 M), 10 mL HEPES buffer (1 M, pH 7.6) and 1 mL Na-pyruvate (0.1 M) were added aseptically. All stock-solutions were filter-sterilized, except the autoclaved non-chelated trace element mixture. Cultures were incubated aerobically at 42° C. without shaking in sterile 250-mL Erlenmeyer flasks or 30-mL cultivation tubes (Product number: 216-1290, Quickstart universal containers STERILIN®, VWR) filled with either 100 or 20 mL FWM and sealed with tape (Micropore™ Surgical Tape 1530-1, 3M™). Late-log phase cultures ([NO2-] ≥ 1 mM) were subcultivated by dilution (1:400) in fresh FWM.
7-day old 100 mL cultures grown in 250-mL Erlenmeyer flasks with a [NO2-] ≥ 1 mM were 5 times overconcentrated in fresh FWM by centrifugation (4000 rpm, 15 min, 5° C.) in 50 mL centrifuge tubes (Cat. No. 430829, CentriStar™ Conical Centrifuge Tubes, Corning®). Per batch, all the cultures were pooled in one sterile Schott bottle. Subsequently, 200 µl/well was dispensed at low pipetting speed in transparent flat bottom 96-well plates (Cat. No. 353072, Falcon® 96 Well Clear Microplate, Corning®) using 150 µl wide-bore tips (two steps of 100 µl) on a Tecan robot (Freedom EVO®, Tecan). 0.5 µl of 99.99 % DMSO (negative control - final concentration 0.25%) and 0.5 µl of 0.04 M PTIO (2-phenyl-4,4,5,5-tetramethylimidazoline-1-oxyl 3-oxide, positive control - final concentration 100 µM) were added manually to the first and last column respectively. Finally, 0.5 µl of candidate nitrification inhibitors (1 mM stock solutions in 99.99% DMSO - final concentration 2.5 µM) were added to the central wells using a pin tool on a Tecan robot (Freedom EVO®, Tecan). In between additions, the pins were washed in sequence with 99.5% DMSO, MilliQ water and 100% ethanol and air-dried. All plates were sealed with tape (Micropore™ Surgical Tape 1530-1, 3M™), stacked per 4 on top of a 96-well plate filled with 100 µl MilliQ per well and covered with aluminum foil. Position effects of the stacks within the incubator were considered. Plates were incubated at 42° C. without shaking. 24 h later, NO2— was measured spectrophotometrically at 540 nm (EnVision, Perkin Elmer®). […]

[3] = 24 h, 24 h, 0% = as strong as 100 µM PTIO, 100% = no inhibition, read-out: ABIL - relative nitrification (%) at 10 µM
[4] = 24 h, 0% = as strong as 100 µM PTIO, 100% = no inhibition
[5] = structural variants outside formula (I), read-out: Relative nitrification (%) by ABIL treated with 10 µM compound

SMILES | activity at 10 µM [1, 5] [%] | activity at 2.5 µM [2] [%] | further results
COCCNC(=O)c1cc(-c2ccc(C)cc2)nc2c1cnn2C(C)C [Example 1] |  |  | activity at 10 µM [1, 3]: -9%; N. viennensis - relative nitrification (%) at 0.5 µM [2]: 52%; N. viennensis - relative nitrification (%) at 5 µM [2]: 0%; N. viennensis - relative nitrification (%) at 25 µM [2]: 0%
Cc1nn(C)c2nc(C(C)C)cc(C(=O)N(C)c3nc4ccccc4s3)c12 [Example 3] |  |  | ABIL - relative nitrification (%) at 2 µM ([1]; 2 µM compound, 0% = as strong as 100 µM PTIO, 100% = no inhibition): -30%; activity at 10 µM [1, 3]: -41%; N. viennensis - relative nitrification (%) at 0.5 µM [2]: 49%; N. viennensis - relative nitrification (%) at 5 µM [2]: 0%; N. viennensis - relative nitrification (%) at 25 µM [2]: 0%
CC(C)c1cc(C(=O)NCC2CCCO2)c2cnn(C(C)C)c2n1 (centres unmarked) [Example 4] |  |  | ABIL - relative nitrification (%) at 10 µM [1, 4]: 10%
COCCNC(=O)c1cc(C2CC2)nc2c1cnn2C(C)C [Example 5] |  |  | activity at 10 µM [1, 3]: 11%
COCCONC(=O)c1cc(C2CC2)nc2c1c(C)nn2C(C)(C)C [Example 6] |  |  | activity at 10 µM [1, 3]: 16%
CC(C)n1ncc2c(C(=O)Nc3nc4c(s3)CCC4)cc(C3CC3)nc21 [Example 7] |  |  | N. viennensis - relative nitrification (%) at 0.5 µM [2]: 85%; N. viennensis - relative nitrification (%) at 5 µM [2]: 7%; N. viennensis - relative nitrification (%) at 25 µM [2]: 2%
Cc1nn(C)c2nc(-c3ccco3)cc(C(=O)N(C)CCOc3cccc(Cl)c3)c12 [Example 8] |  |  | N. viennensis - relative nitrification (%) at 0.5 µM [2]: 100%; N. viennensis - relative nitrification (%) at 5 µM [2]: 98%; N. viennensis - relative nitrification (%) at 25 µM [2]: 5%
CCn1ncc2c(C(=O)NCC3CCCO3)cc(-c3ccccc3)nc21 (centres unmarked) [Example 9] |  |  | N. viennensis - relative nitrification (%) at 0.5 µM [2]: 100%; N. viennensis - relative nitrification (%) at 5 µM [2]: 100%; N. viennensis - relative nitrification (%) at 25 µM [2]: 54%
CC(C)n1ncc2c(C(=O)NCCc3ccccn3)cc(C3CC3)nc21 [Example 10] |  |  | activity at 10 µM [1, 3]: 19%
Cc1nn(C(C)(C)C)c2nc(C3CC3)cc(C(=O)N(C)C)c12 [Example 11] |  |  | activity at 10 µM [1, 3]: 25%
Cc1nn(C(C)(C)C)c2nc(C3CC3)cc(C(=O)NC(C)C)c12 [Example 12] |  |  | activity at 10 µM [1, 3]: 30%
CC(C)c1cc(C(=O)NCC2CCCO2)c2cnn(C(C)C)c2n1 (centres unmarked) [Example 13] |  |  | ABIL - relative nitrification (%) at 10 µM [1, 4]: 49%
CCC(C)NC(=O)c1cc(C(C)C)nc2c1cnn2C(C)C (centres unmarked) [Example 14] |  |  | activity at 10 µM [1, 3]: 61%
CC(C)n1ncc2c(C(=O)NCCN(C)C)cc(C3CC3)nc21 [Example 15] |  |  | activity at 10 µM [1, 3]: 65%
Cc1nn(C)c2nc(C3CC3)cc(C(=O)NCCC(C)C)c12 [Example 16] |  |  | activity at 10 µM [1, 3]: 65%
Cc1nn(C)c2nc(C3CC3)cc(C(=O)N(C)CC(=O)Nc3ccc(Cl)c(Cl)c3)c12 [Example 17] |  |  | activity at 10 µM [1, 3]: 68%
CCCN(C)C(=O)c1cc(C2CC2)nc2c1cnn2C(C)C [Example 18] |  |  | activity at 10 µM [1, 3]: 69%
CC(C)n1ncc2cc(NC(=O)C3CC3(Cl)Cl)cnc21 (centres unmarked) [Example 19] | 90 | 100 | 
Cc1n[nH]c2nc(C(F)(F)F)cc(C(F)(F)F)c12 [Example 20] | 90 | 100 | 
Cc1nn(C)c2ncc(C(=O)NCC3CN(CC(C)C)CCO3)cc12 (centres unmarked) [Example 21] | 90 | 100 | 
CC(Oc1ccc(Br)cc1)C(=O)Nc1cnc2c(cnn2C(C)C)c1 (centres unmarked) [Example 22] | 90 | 100 | 
CC(=O)NC(CC(=O)Nc1cnc2c(cnn2C(C)C)c1)c1ccc(Cl)cc1 (centres unmarked) [Example 23] | 91 | 100 | 
CCc1nnc(NC(=O)c2cnc3c(cnn3C(C)C)c2)s1 [Example 24] | 91 | 100 | 

SMILES | activity at 10 µM [1, 5] [%] | activity at 2.5 µM [2] [%] | further results
c1csc(Cn2ncc3ccc(-c4ccc5c(c4)OCO5)nc32)c1 [Example 25] | 91 | 100 | 
Cc1nc2c(cnn2C(C)C)c(C)c1CCC(=O)N1CCSCC1 [Example 26] | 92 | 100 | 
CNC(=O)N(C)C(=O)c1cnc2c(cnn2C(C)C)c1 [Example 27] | 92 | 100 | 
CC(C)n1ncc2cc(NC(=O)CCS(=O)(=O)c3ccc(Cl)cc3)cnc21 [Example 28] | 92 | 100 | 
CCN(CC1CCOC1)C(=O)c1cnc2c(cnn2C(C)C)c1 (centres unmarked) [Example 29] | 92 | 100 | 
CC(C)n1ncc2cc(CNc3ccc4[nH]ncc4c3)ccc21 [Example 30] | 92 | 100 | 
Cc1nc2c(cnn2C(C)C)cc1C(=O)NC(C)C1CC1 (centres unmarked) [Example 31] | 93 | 99 | 
CCC(C)n1ncc2c(C(=O)O)cc(C3CC3)nc21 (centres unmarked) [Example 32] | 94 | 90 | 
CC(C)n1ncc2cc(C(=O)Nc3ccc(F)cc3F)cnc21 [Example 33] | 94 | 100 | 
CCc1cccc(NC(=O)CCc2c(C)nc3c(c(C)nn3C)c2C)c1 [Example 34] | 96 | 99 | 
CC(C)n1ncc2cc(NC(=O)CCC3CCCO3)cnc21 (centres unmarked) [Example 35] | 96 | 98 | 
Cc1nc2c(c(C)nn2C)c(C)c1CCC(=O)O [Example 36] | 97 | 94 | 
Cc1nn(C)c2ncc(CNCCCN3CCc4ccccc43)cc12 [Example 37] | 97 | 100 | 
CC(C)n1ncc2cc(CN(C)C3CCSC3)cnc21 (centres unmarked) [Example 38] | 97 | 99 | 
COc1ccc(OC)c(C(C)NC(=O)c2cnc3c(cnn3C(C)C)c2)c1 (centres unmarked) [Example 39] | 97 | 100 | 
Cc1n[nH]c2ncc(CNCCc3ccsc3)cc12 [Example 40] | 98 | 93 | 
CCN(CC1CCOC1)C(=O)c1cc2cnn(C(C)C)c2nc1C (centres unmarked) [Example 41] | 98 | 100 | 
CC(C)n1ncc2cc(C(=O)NCc3ccccc3OC(F)(F)F)cnc21 [Example 42] | 98 | 98 | 
CNS(=O)(=O)c1cccc(C(=O)Nc2cnc3c(c2)c(C)nn3C)c1 [Example 43] | 98 | 100 | 
Cc1nc2cc(NC(=O)c3cnc4c(cnn4C(C)C)c3)ccc2o1 [Example 44] | 99 | 100 | 
Cc1cc(C)c2c(OCC(=O)N3CCOCC3(C)C)nn(C)c2n1 [Example 45] | 99 | 98 | 
Cc1nc2c(c(C)nn2C)c(C)c1CCC(=O)N1CC(C)OC(C)C1 (centres unmarked) [Example 46] | 99 | 90 | 
